Assay results reported in ChEMBL document CHEMBL6182944, “Substrate Specificity of the Organic Cation Transporters MATE1 and MATE2K and Functional Overlap with OCT1 and OCT2” (J Med Chem, 2025).

How the values were obtained:
[1] = molecular target: T1, MATE1 (Homo sapiens, UniProt Q96FL8); assay: in vitro
T1 sequence (Q96FL8 whole entry): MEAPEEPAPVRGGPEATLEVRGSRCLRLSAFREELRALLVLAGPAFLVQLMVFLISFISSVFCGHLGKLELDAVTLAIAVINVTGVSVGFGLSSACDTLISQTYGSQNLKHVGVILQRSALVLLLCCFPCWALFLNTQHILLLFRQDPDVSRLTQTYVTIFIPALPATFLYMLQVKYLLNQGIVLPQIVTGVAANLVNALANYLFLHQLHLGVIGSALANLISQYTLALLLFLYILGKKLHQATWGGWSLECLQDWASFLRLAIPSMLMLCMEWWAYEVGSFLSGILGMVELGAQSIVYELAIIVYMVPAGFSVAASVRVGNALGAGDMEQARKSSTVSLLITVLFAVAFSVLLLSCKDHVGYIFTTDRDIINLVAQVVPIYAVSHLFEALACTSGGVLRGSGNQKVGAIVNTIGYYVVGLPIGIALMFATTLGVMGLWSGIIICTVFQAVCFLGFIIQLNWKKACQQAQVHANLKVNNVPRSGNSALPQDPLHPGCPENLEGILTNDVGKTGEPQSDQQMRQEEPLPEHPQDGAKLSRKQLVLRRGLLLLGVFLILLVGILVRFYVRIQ

[2] = molecular target: T2, MATE2-K (Homo sapiens, UniProt Q86VL8); assay: in vitro
T2 sequence (Q86VL8 whole entry): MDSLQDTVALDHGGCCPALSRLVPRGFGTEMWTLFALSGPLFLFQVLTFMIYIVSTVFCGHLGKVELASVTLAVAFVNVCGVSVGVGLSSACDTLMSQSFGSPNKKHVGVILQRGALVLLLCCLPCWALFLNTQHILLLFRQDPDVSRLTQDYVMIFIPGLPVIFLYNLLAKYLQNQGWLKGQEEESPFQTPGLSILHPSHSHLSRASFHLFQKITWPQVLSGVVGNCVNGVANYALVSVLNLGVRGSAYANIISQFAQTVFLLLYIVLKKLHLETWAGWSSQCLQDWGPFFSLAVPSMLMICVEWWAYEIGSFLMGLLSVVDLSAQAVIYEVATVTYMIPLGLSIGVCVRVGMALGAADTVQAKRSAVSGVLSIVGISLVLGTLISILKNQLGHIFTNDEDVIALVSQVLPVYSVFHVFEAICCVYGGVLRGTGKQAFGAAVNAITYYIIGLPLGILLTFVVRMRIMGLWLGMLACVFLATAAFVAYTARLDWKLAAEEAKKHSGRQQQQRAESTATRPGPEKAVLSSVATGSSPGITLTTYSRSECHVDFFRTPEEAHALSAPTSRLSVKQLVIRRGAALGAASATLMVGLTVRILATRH

[3] = HEK293 cells expressing MATE2-K

| SMILES | uptake ratio at 1 min, 2.5 µM ([1]; HEK293 cells expressing MATE1) | uptake ratio at 1 min, 2.5 µM [2, 3] | uptake ratio at 1 min, 2.5 µM ([1]; hek293) | uptake ratio at 1 min, 2.5 µM ([2]; hek293) |
| --- | --- | --- | --- | --- |
| COc1ccc(CCN)cc1 | < 2 | < 2 |  |  |
| COc1cc(CCN)ccc1O | > 2 | < 2 |  |  |
| OC(c1ccccc1)(c1ccccc1)C12CC[N+](CCOCc3ccccc3)(CC1)CC2 | > 2 | < 2 |  |  |
| NCCCCCN | < 2 | < 2 |  |  |
| O=C(O[C@H]1C[N+]2(CCCOc3ccccc3)CCC1CC2)C(O)(c1cccs1)c1cccs1 | > 2 | < 2 |  |  |
| COc1cc2c(cc1OC)-c1cc3ccc4c(c3c[n+]1CC2)OCO4 | > 2 | > 2 |  |  |
| C[C@@H]1O[C@@]2(CS1)CN1CCC2CC1 | < 2 | < 2 |  |  |
| COC(=O)[C@@H]1[C@H]2CC[C@@H](C[C@@H]1O)N2C | < 2 | < 2 |  |  |
| CNS(=O)(=O)CCc1ccc2[nH]cc(C3CCN(C)CC3)c2c1 | > 2 | > 2 |  |  |
| CC[C@@H](C(N)=O)N1CCCC1=O | < 2 | < 2 |  |  |
| CNC(C)Cc1ccc(OC)cc1 (configuration not stated) | < 2 | < 2 |  |  |
| NCCc1cccc(O)c1 | > 2 | < 2 |  |  |
| COc1ccc(CCN)cc1O | > 2 | < 2 |  |  |
| CN1CCC[C@@H]1Cc1c[nH]c2ccc(CCS(=O)(=O)c3ccccc3)cc12 | < 2 | < 2 |  |  |
| C[N+]1(CCC(C(N)=O)(c2ccccc2)c2ccccc2)CCCCC1 | > 2 | < 2 |  |  |
| COc1ccc2[nH]c3c(c2c1)CCNC3 | < 2 | < 2 |  |  |
| CCC(Cc1ccc2c(c1)OCO2)NC (configuration not stated) | < 2 | < 2 |  |  |
| CNCCc1c[nH]c2ccc(O)cc12 | > 2 | > 2 |  |  |
| C1CCN2C[C@H]3C[C@H](CN4CCCC[C@@H]34)[C@H]2C1 | > 2 | > 2 |  |  |
| N=C(N)NCCC[C@H](NC(=O)c1ccc2ccccc2c1O)C(=O)N1CCC[C@H]1C(N)=O | > 2 | < 2 |  |  |
| CN(C)C(=N)NCCC[C@H](N)C(=O)O | < 2 | < 2 |  |  |
| CNCCc1ccccc1 | < 2 | < 2 |  |  |
| CNCCc1ccc(O)cc1 | > 2 | < 2 |  |  |
| Cc1cc(O)cc(C)c1OCC(C)N (configuration not stated) | < 2 | < 2 |  |  |
| CNCc1ccc(CSCCN/C(=C/[N+](=O)[O-])NC)o1 | > 2 | > 2 |  |  |
| Cc1ncc(C[n+]2cccc(CCO)c2C)c(N)n1 | > 2 | > 2 |  |  |
| COc1ccc2[nH]cc(C[C@H](N)C(=O)O)c2c1 | < 2 | < 2 |  |  |

| SMILES | uptake ratio at 1 min, 2.5 µM ([1]; HEK293 cells expressing MATE1) | uptake ratio at 1 min, 2.5 µM [2, 3] | uptake ratio at 1 min, 2.5 µM ([1]; hek293) | uptake ratio at 1 min, 2.5 µM ([2]; hek293) |
| --- | --- | --- | --- | --- |
| CNCC(O)c1ccc(O)cc1 (configuration not stated) | > 2 | < 2 |  |  |
| C[N+]12CCC(CC1)C(OC(=O)C(O)(c1ccccc1)c1ccccc1)C2 (configuration not stated) | > 2 | < 2 |  |  |
| C[C@H](NCCc1ccc(O)cc1)[C@H](O)c1ccc(O)cc1 |  |  | > 2 | > 2 |
| C[C@@H]1Cc2c(Cl)cc(C(=O)N[C@@H](Cc3ccccc3)C(=O)O)c(O)c2C(=O)O1 [3R14S-OCHRATOXIN A] | > 2 | < 2 |  |  |
| N=C(N)NC(=N)Nc1ccc(Cl)cc1 [4-CHLOROPHENYLBIGUANIDE] | > 2 | > 2 |  |  |
| CCCC(=O)Nc1ccc(OCC(O)CNC(C)C)c(C(C)=O)c1 (configuration not stated) [ACEBUTOLOL] |  |  | > 2 | > 2 |
| N=C(N)NCCCCN [AGMATINE] | < 2 | < 2 |  |  |
| C=CCN1CCCC1CNC(=O)c1cc2[nH]nnc2cc1OC (configuration not stated) [ALIZAPRIDE] | > 2 | > 2 |  |  |
| CN(C)CCc1c[nH]c2ccc(CS(=O)(=O)N3CCCC3)cc12 [ALMOTRIPTAN] | > 2 | > 2 |  |  |
| Nc1ccncc1N [AMIFAMPRIDINE] | > 2 | > 2 |  |  |
| NC(N)=NCCCCN=C(N)N [ARCAINE] | > 2 | > 2 |  |  |
| O=C1CCc2ccc(OCCCCN3CCN(c4cccc(Cl)c4Cl)CC3)cc2N1 [ARIPIPRAZOLE] |  |  | < 2 | < 2 |
| CC(=O)c1cc2cccc(OCC(O)CNC(C)C)c2o1 (configuration not stated) [BEFUNOLOL] | < 2 | < 2 |  |  |
| CNCCc1ccccn1 [BETAHISTINE] |  |  | < 2 | < 2 |
| CC(C)NCC(O)COc1ccc(CCOCC2CC2)cc1 (configuration not stated) [BETAXOLOL] |  |  | < 2 | < 2 |
| CCCCNC(=N)NC(=N)N [BUFORMIN] |  |  | > 2 | > 2 |
| O=C1CC2(CCCC2)CC(=O)N1CCCCN1CCN(c2ncccn2)CC1 [BUSPIRONE] |  |  | > 2 | < 2 |
| CCCC[N+]1(C)[C@@H]2C[C@@H](OC(=O)[C@H](CO)c3ccccc3)C[C@H]1[C@@H]1O[C@@H]12 (some centres not stated) [BUTYLSCOPOLAMINE] | > 2 | < 2 |  |  |
| CCN(CC)C(=O)Nc1ccc(OCC(O)CNC(C)(C)C)c(C(C)=O)c1 (configuration not stated) [CELIPROLOL] | > 2 | > 2 |  |  |
| CN(C)CCCN1c2ccccc2Sc2ccc(Cl)cc21 [CHLORPROMAZINE] |  |  | < 2 | < 2 |
| C[N+](C)(C)CCO [CHOLINE] |  |  | < 2 | < 2 |
| CN/C(=N/CCSCc1nc[nH]c1C)NC#N [CIMETIDINE] |  |  | > 2 | > 2 |
| CC(C)(C)NCC(O)c1ccc(O)c(O)c1 (configuration not stated) [COLTEROL] | > 2 | > 2 |  |  |
| CN(CC(=O)O)C(=N)N [CREATINE] | < 2 | < 2 |  |  |
| CC1(C)N=C(N)N=C(N)N1c1ccc(Cl)cc1 [CYCLOGUANIL] | > 2 | > 2 |  |  |
| O=c1cccc2n1C[C@@H]1CNC[C@H]2C1 [CYTISINICLINE] |  |  | > 2 | < 2 |
| NC(N)=Nc1nc(CSCCC(N)=NS(N)(=O)=O)cs1 [FAMOTIDINE] |  |  |  | > 2 |
